The record followed here is the Deep4Chem optical property database.

SMILES strings stand for the structures.

The data set is described as follows: solvent given as SMILES.

`C(=C1c2ccccc2CCc2ccccc21)c1ccc(C=C2c3ccccc3CCc3ccccc32)cc1` displayed an emission maximum (in C1CCOC1) of 406 nm.

For the compound `CCCCCCc1cc2c3c(c1)c(=C1c4ccccc4Sc4ccccc41)c1cc(CCCCCC)cc4c1N3c1c(cc(CCCCCC)cc1c4=C1c3ccccc3Sc3ccccc31)c2=C1c2ccccc2Sc2ccccc21`, where the note is “in ClCCl”, the emission maximum is listed as 498 nm.

As for `CC1(C)c2ccccc2N(c2ccc3c(c2)Oc2ccccc2S3(=O)=O)c2ccccc21`, the emission maximum stood at 451 nm (in Cc1ccccc1) and 458 nm (in O=P(c1ccccc1)(c1ccccc1)c1ccccc1Oc1ccccc1P(=O)(c1ccccc1)c1ccccc1).

`Cc1cc(C)c(C2=C3C=CC=[N+]3[B-]3(F)Oc4cc(O)cc5c6ccc(C)cc6c6cc2n3c6c45)c(C)c1` (stereo not drawn) showed an emission maximum (in ClC(Cl)Cl) of 649 nm.

`COc1cc(OC)cc(C2=C(c3cc(OC)c(OC)c(OC)c3)C3=Nc4c(-c5cc(OC)c(OC)c(OC)c5)c(-c5cc(OC)cc(OC)c5)c(-c5ccc(C(C)(C)C)cc5)n4[B-](F)(F)[N+]3=C2c2ccc(C(C)(C)C)cc2)c1` registered an emission maximum (in Cc1ccccc1) of 721 nm.

`N#Cc1ccc(C2=CC3=c4cc(-c5ccc(C#N)cc5)c5nc(C(F)(F)C(F)(F)C(F)(F)F)nc6c(-c7ccc(C#N)cc7)cc(c4c65)C4=CC(c5ccc(C#N)cc5)=C5N=C(C(F)(F)C(F)(F)C(F)(F)F)N=C2C5C43)cc1` (stereo not drawn) gave an emission maximum (in C1CCOC1) of 518 nm.

As for `C=Cc1ccc(-c2ccc(-c3nnc(-c4ccc(-c5nnc(-c6ccc(-c7ccc(C=C)cc7)s6)o5)cc4)o3)s2)cc1`, the emission maximum runs as follows: (in C1COCCO1) 397 nm; (in CC#N) 400 nm; (in CC(=O)N(C)C) 407 nm; (in CCCCCCCCCCO) 399 nm; (in CCCCCCCCO) 400 nm; (in CCCCCCO) 399 nm. The emission maximum came to 400 nm (in CCCCO); 400 nm (in CCO); 423 nm (in CS(C)=O); 399 nm (in Cc1ccccc1); 398 nm (in ClC(Cl)Cl).

Take `Cc1cc(C)n2c1C=C1c3ccccc3C(c3cccn3C)=[N+]1[B-]2(F)F`: the emission maximum is, setting by setting: (in C1CCOC1) 608 nm; (in CC#N) 606 nm; (in CCCCCC) 605 nm; (in CO) 605 nm; (in Cc1ccccc1) 613 nm; (in ClCCl) 611 nm.

Regarding `N#C/C(=C\c1ccc(C#N)cc1)c1nc(-c2ccccc2)cs1`, the emission maximum reads like this: (in CC#N) 501 nm; (in CCO) 500 nm; (in CN(C)C=O) 507 nm; (in Cc1ccccc1) 472 nm; (in ClCCl) 490 nm.

Where the note is “in ClCCl”, `c1ccc(-c2nc(-c3ccc(N4c5ccccc5Oc5ccccc54)cc3)nn2-c2ccc(N3c4ccccc4Oc4ccccc43)cc2)nc1` showed an emission maximum of 490 nm.

Turning to `O=C1NC(c2ccccc2)=C/C1=C\c1ccccc1`, under “in C1COCCO1”, the emission maximum was 539 nm.

Take `COc1ccc2cc(-c3ccc([N+](=O)[O-])cc3)ccc2c1`: the emission maximum amounted to 534 nm (in C1CCOC1), 647 nm (in CC#N), 573 nm (in ClC(Cl)Cl) and 591 nm (in ClCCl).

Regarding `CC1=C2C=CC(C)=[N+]2[B-](F)(F)n2cccc21`, the emission maximum was determined as 504 nm (in CCCCCC), 502 nm (in CO) and 506 nm (in ClCCl).

Where the note is “in ClCCl”, `COC(=O)c1c(-c2cc3ccccc3oc2=O)nn(-c2ccc(Br)cc2)c1C(=O)OC` yielded an emission maximum of 401 nm.

`Cc1cc2c3ccccc3n(C)c2c2c1c1ccccc1n2C` came in with an emission maximum (in ClCCl) of 391 nm.

In turn, `CCCCn1c(-c2ccc(-c3ccc(-c4ccc(-c5n(CCCC)c6cc(C)ccc6[n+]5CCCC)cc4)cc3)cc2)[n+](CCCC)c2ccc(C)cc21` came in with an emission maximum (in O) of 397 nm.

Take `O=C(O)CCCc1cc(C#Cc2ccccc2)c2ccc3c(C#Cc4ccccc4)cc(C#Cc4ccccc4)c4ccc1c2c34`: the emission maximum by setting is: (in CS(C)=O) 461 nm; (in ClC(Cl)(Cl)Cl) 460 nm.
